Experimental data reported in ChEMBL document CHEMBL1201862, “PubChem BioAssay data set” (2004).
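1) Cells in 96-well plates. 2) Compound, 48 h, 5 concentrations. 3) Linear interpolation between surrounding doses. 4) Unreached endpoint = highest concentration. Here, GI50 denotes the concentration required for 50% inhibition of growth.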 Calls of active or inactive are those of the source. Cut-off read from the data, not from the text of the source: active = GI50 up to about 1.1 µM and inactive = higher.

Key:
Assay in all cases: inhibition of tumour cell growth, NCI panel, 48 h
HOP-18 = test system: HOP-18
786-0 = test system: 786-0
RXF 631 = test system: RXF 631
DMS-273 = test system: DMS-273
KM-20L2 = test system: KM-20L2
BT-549 = test system: BT-549
PC-3 = test system: PC-3
MDA-MB-231 = test system: MDA-MB-231
MDA-MB-435 = test system: MDA-MB-435

SMILES	GI50 (HOP-18)	GI50 (786-0)	GI50 (RXF 631)	GI50 (DMS-273)	GI50 (KM-20L2)	GI50 (BT-549)	GI50 (PC-3)	GI50 (MDA-MB-231)	GI50 (MDA-MB-435)
C[C@]12CCC3[C@@H](C[C@H]4OC(=O)[C@@]35CCC(=O)C=C45)C1CCC2=O (stereo partly specified)	> 100 µM (inactive)	> 100 µM (inactive)							
Nc1nc(Cl)cc(NCCCCO)n1			> 100 µM (inactive)	> 100 µM (inactive)	> 100 µM (inactive)				
COn1oc(=O)c2ccccc21		> 100 µM (inactive)				> 100 µM (inactive)	> 100 µM (inactive)	> 100 µM (inactive)	> 100 µM (inactive)
COC(C[C@H]1CCCC[C@]1(O)/C(=C\CO[Si](C(C)C)(C(C)C)C(C)C)Sc1ccccc1)OC		39.4 µM (inactive)					35.6 µM (inactive)	18.9 µM (inactive)	33 µM (inactive)
CCOC(=O)CC1(c2cccc3ccccc23)OC(=O)c2ccccc21 (stereo unspecified)	40.4 µM (inactive)			41.7 µM (inactive)	45 µM (inactive)				
Nc1nc(SCCc2ccccc2)nc2nc3c(c(-c4ccccc4)c12)CCCC3						42 µM (inactive)	> 100 µM (inactive)	> 100 µM (inactive)	> 100 µM (inactive)
Oc1cc(-c2ccc(Cl)cc2)nc2ncccc12						> 100 µM (inactive)		64.6 µM (inactive)	
C=C1C(O)C2(O)OCC34C(CC5C(C)=CC(=O)C(O)C5(C)C23)OC(=O)C(OC(=O)C/C=C/CCCCCCCC)C14 (stereo unspecified)	0.0776 µM (active)			0.02 µM (active)	0.0208 µM (active)				
O=C(NC(Cc1ccc(I)cc1)C(=O)O)c1cccc(Br)c1 (stereo unspecified)	> 82.4 µM (inactive)			> 100 µM (inactive)	> 100 µM (inactive)				
Cc1cc([N+](=O)[O-])ccc1/N=N/C(=O)NNc1ccc([N+](=O)[O-])cc1C		16.9 µM (inactive)				11.6 µM (inactive)	13.5 µM (inactive)	> 10 µM (inactive)	12.8 µM (inactive)
CCC1NC(/N=N/c2ccc([N+](=O)[O-])cc2)(P(=O)(OC(C)C)OC(C)C)OC1=O (stereo unspecified)				> 100 µM (inactive)	> 100 µM (inactive)				
